# Assay results from patent US8034940B2, “Modulators of glucocorticoid receptor, AP-1, and/or NF-κB activity and use thereof” (Bristol-Myers Squibb Company, priority 2006, dated 2011).
# System: AP-1 induced transcriptional activity
# Test: Cellular Transrepressional Assay (AP-1 luciferase reporter, PMA-activated A549 cells)
# Assay type: cell-based
# Settings: for Emax: A549, 7 h, read-out: AP-1 Max % inh (Cellular Transrepression Assay); for Emax / AP-1 Max % inh (Cellular Transrepression Assay): maximum inhibition
# Protocol: Cellular Transrepressional Assay
# To measure the ability of test molecules to inhibit AP-1 induced transcriptional activity we utilized an A549 cell which was stably transfected with a plasmid containing 7× AP-1 DNA binding sites (pAP-1-Luc plasmid, Stratagene Co. La Jolla, Calif.) followed by the gene for luciferase. Cells were activated with 10 ng/ml of […] (PMA) plus or minus test molecules for 7 hours. After 7 hours a luciferase reagent was added to measure luciferase enzymatic activity in the cell. After a 10 minute incubation of luciferase reagent with cells, luminescence was measured in a TopCount luminescence counter. Repression of AP-1 activity was calculated as the percentage decrease in the signal induced by PMA alone. Test molecules were analyzed in the concentration range from 0.1 nM to 40 μM. EC50s were determined by using standard curve fitting methods such as Excel fit (Microsoft Co.).
# [1] = Homo sapiens, Cellular Transrepression Assay
# [2] = Homo sapiens, A549, Cellular Transrepression Assay
Structure (SMILES),Emax [1] [%],EC50 [2] [nM],EC50 (Cellular Transrepression Assay) [nM],"EC50 (Cellular Transrepression Assay, listed as 166^a) [nM]",AP-1 Max % inh (Cellular Transrepression Assay) (Cellular Transrepression Assay) [%]
CC(C)(C(=O)Nc1nncs1)C1c2ccccc2Oc2nc(N3CCOCC3)ccc21 (stereo not shown) [Example 129],39.5,307,,,
CC(C)(C(=O)Nc1nncs1)C1c2ccccc2Oc2nc(N3CCCC3)ccc21 (stereo not shown) [Example 130],31.5,111,,,
CN1CCN(c2ccc3c(n2)Oc2ccccc2C3C(C)(C)C(=O)Nc2nncs2)CC1 (stereo not shown) [Example 131],45.6,970,,,
CC(C)(C(=O)Nc1nncs1)C1c2ccccc2Oc2nc(N3CCCCC3)ccc21 (stereo not shown) [Example 132],50.1,96,,,
CC(C)(C(=O)Nc1nncs1)C1c2ccccc2Oc2nc(NCc3ccccc3)ccc21 (stereo not shown) [Example 133],61.3,585,,,
CC(C)(C(=O)Nc1nncs1)[C@H]1c2ccccc2Oc2nc(N3CCC4(CC3)OCCO4)ccc21 [Example 139],26.8,95.5,,,
COc1ccc(CNc2ccc3c(n2)Oc2ccccc2[C@@H]3C(C)(C)C(=O)Nc2nncs2)cc1 [Example 140],64.1,93.7,,,
CC(C)(C(=O)Nc1nncs1)[C@H]1c2ccccc2Oc2nc(N3CCCC3)ccc21 [Example 141],44.2,92.1,,,
CC(C)(C(=O)Nc1nccs1)C1c2ccccc2Oc2nc(N3CCOCC3)ccc21 (stereo not shown) [Example 154],46.2,236,,,
CC(C)(C(=O)Nc1nccs1)C1c2ccccc2Oc2nc(N)ccc21 (stereo not shown) [Example 158],62.5,200,,,
CC(C)(C(=O)Nc1nncs1)C1c2ccccc2Oc2nc(N)ccc21 (stereo not shown) [Example 159],30.3,479,,,
Cc1nnc(NC(=O)C(C)(C)C2c3ccc(-c4ccc(C(=O)N5CCOCC5)cc4)nc3Oc3c(F)cccc32)s1 (stereo not shown) [Example 163],64.4,4.9,,,
Cc1nsc(NC(=O)C(C)(C)C2c3ccc(-c4ccc(C(=O)N5CCOCC5)cc4)nc3Oc3c(F)cccc32)n1 (stereo not shown) [Example 164],58,8.5,,,
Cc1nnc(NC(=O)C(C)(C)C2c3ccc(-c4ccc(C(=O)N(C)C)c(F)c4)nc3Oc3c(F)cccc32)s1 (stereo not shown) [Example 165],53.4,9.8,,,
Cc1nnc(NC(=O)C(C)(C)C2c3ccc(-c4ccc(C(=O)N(C)C)cc4)nc3Oc3c(F)cccc32)s1 (stereo not shown) [Example 166],56.1,,43.4,14.5,
COc1ccc(-c2ccc3c(n2)Oc2ccccc2C3C(C)(C)C(=O)Nc2nncs2)cc1 (stereo not shown) [Example 169],,,92.7,,48.82
Cc1ccc(-c2ccc3c(n2)Oc2ccccc2C3C(C)(C)C(=O)Nc2nncs2)cc1 (stereo not shown) [Example 170],,,182,,44.12
CN(C)C(=O)c1ccc(-c2ccc3c(n2)Oc2ccccc2C3C(C)(C)C(=O)Nc2nncs2)cc1 (stereo not shown) [Example 172],,,13.2,,59.04
CC(C)(C(=O)Nc1nncs1)C1c2ccccc2Oc2nc(-c3ccc(OC(F)(F)F)cc3)ccc21 (stereo not shown) [Example 173],,,82.5,,44.82
CN(C)c1ccc(-c2ccc3c(n2)Oc2ccccc2C3C(C)(C)C(=O)Nc2nncs2)cc1 (stereo not shown) [Example 176],,,118,,43.54
CC(C)(C(=O)Nc1nncs1)C1c2ccccc2Oc2nc(-c3ccc(C(F)(F)F)cc3)ccc21 (stereo not shown) [Example 182],,,109,,33.12
CC(C)(C(=O)Nc1nncs1)C1c2ccccc2Oc2nc(-c3ccc(O)cc3)ccc21 (stereo not shown) [Example 191],,,22.6,,37.51
CC(C)(C(=O)Nc1nncs1)C1c2ccccc2Oc2nc(-c3ccc(Oc4ccccc4)cc3)ccc21 (stereo not shown) [Example 198],,,22.2,,34.38
CSc1ccc(-c2ccc3c(n2)Oc2ccccc2C3C(C)(C)C(=O)Nc2nncs2)cc1 (stereo not shown) [Example 199],,,27.6,,48.94
CC(C)(C(=O)Nc1nncs1)C1c2ccccc2Oc2nc(-c3ccc(N)cc3)ccc21 (stereo not shown) [Example 200],,,134,,53.76
CC(=O)c1ccc(-c2ccc3c(n2)Oc2ccccc2C3C(C)(C)C(=O)Nc2nncs2)cc1 (stereo not shown) [Example 201],,,36.3,,65.46
CC(C)(C(=O)Nc1nncs1)C1c2ccccc2Oc2nc(-c3ccc(OCc4ccccc4)cc3)ccc21 (stereo not shown) [Example 202],,,219,,38.37

Structure (SMILES),Emax [1] [%],EC50 [2] [nM],EC50 (Cellular Transrepression Assay) [nM],"EC50 (Cellular Transrepression Assay, listed as 166^a) [nM]",AP-1 Max % inh (Cellular Transrepression Assay) (Cellular Transrepression Assay) [%]
CCOc1ccc(-c2ccc3c(n2)Oc2ccccc2C3C(C)(C)C(=O)Nc2nncs2)cc1 (stereo not shown) [Example 204],,,42.8,,44.75
CCCc1ccc(-c2ccc3c(n2)Oc2ccccc2C3C(C)(C)C(=O)Nc2nncs2)cc1 (stereo not shown) [Example 205],,,8.5,,57.72
CCc1ccc(-c2ccc3c(n2)Oc2ccccc2C3C(C)(C)C(=O)Nc2nncs2)cc1 (stereo not shown) [Example 206],,,21.3,,54.73
CC(C)(C)c1ccc(-c2ccc3c(n2)Oc2ccccc2C3C(C)(C)C(=O)Nc2nncs2)cc1 (stereo not shown) [Example 207],,,32.6,,37.96
CC(C)Cc1ccc(-c2ccc3c(n2)Oc2ccccc2C3C(C)(C)C(=O)Nc2nncs2)cc1 (stereo not shown) [Example 208],,,12.2,,54.08
CC(C)Oc1ccc(-c2ccc3c(n2)Oc2ccccc2C3C(C)(C)C(=O)Nc2nncs2)cc1 (stereo not shown) [Example 209],,,14.3,,50.21
CCCCOc1ccc(-c2ccc3c(n2)Oc2ccccc2C3C(C)(C)C(=O)Nc2nncs2)cc1 (stereo not shown) [Example 210],,,77.7,,39.38
CC(C)Oc1ccc(-c2ccc3c(n2)Oc2ccccc2C3C(C)(C)C(=O)Nc2nncs2)cc1F (stereo not shown) [Example 211],,,41.3,,49.63
CCCCc1ccc(-c2ccc3c(n2)Oc2ccccc2C3C(C)(C)C(=O)Nc2nncs2)cc1 (stereo not shown) [Example 212],,,19.6,,63.05
CCCOc1ccc(-c2ccc3c(n2)Oc2ccccc2C3C(C)(C)C(=O)Nc2nncs2)cc1 (stereo not shown) [Example 217],,,41,,45.81
CC(C)(C(=O)Nc1nncs1)[C@H]1c2ccccc2Oc2nc(-c3ccncc3)ccc21 [Example 219],,,180,,35.87
CCCCCc1ccc(-c2ccc3c(n2)Oc2ccccc2C3C(C)(C)C(=O)Nc2nncs2)cc1 (stereo not shown) [Example 220],,,105,,52.23
CC(C)(C(=O)Nc1nncs1)[C@H]1c2ccccc2Oc2nc(-c3ccc(C4CCCCC4)cc3)ccc21 [Example 221],,,28.9,,62.97
CCCCc1ccc(-c2ccc3c(n2)Oc2ccccc2C3C(C)(C)C(=O)Nc2nncs2)c(C)c1 (stereo not shown) [Example 222],,,100,,61.88
CC(C)(C(=O)Nc1nncs1)[C@H]1c2ccccc2Oc2nc(-c3ccc(O)c(F)c3)ccc21 [Example 223],,,839,,27.87
CC(C)(C(=O)Nc1nncs1)[C@H]1c2ccccc2Oc2nc(-c3cccc(F)c3)ccc21 [Example 225],,,920,,45.65
CCSc1ccc(-c2ccc3c(n2)Oc2ccccc2C3C(C)(C)C(=O)Nc2nncs2)cc1 (stereo not shown) [Example 226],,,18.1,,49.05
CCS(=O)(=O)c1ccc(-c2ccc3c(n2)Oc2ccccc2C3C(C)(C)C(=O)Nc2nncs2)cc1 (stereo not shown) [Example 227],,,37.9,,42.50
CC(C)S(=O)(=O)c1ccc(-c2ccc3c(n2)Oc2ccccc2C3C(C)(C)C(=O)Nc2nncs2)cc1 (stereo not shown) [Example 228],,,51.5,,28.32
CC(=O)c1ccc(-c2ccc3c(n2)Oc2ccccc2C3C(C)(C)C(=O)Nc2nncs2)cc1F (stereo not shown) [Example 229],,,42,,39.34
CCCOc1ccc(-c2ccc3c(n2)Oc2ccccc2C3C(C)(C)C(=O)Nc2nncs2)cc1F (stereo not shown) [Example 230],,,550,,52.33
CC(C)(C(=O)Nc1nncs1)C1c2ccccc2Oc2nc(-c3ccc(CC(=O)O)cc3)ccc21 (stereo not shown) [Example 231],,,733,,38.36
CCNS(=O)(=O)c1ccc(-c2ccc3c(n2)Oc2ccccc2C3C(C)(C)C(=O)Nc2nncs2)cc1 (stereo not shown) [Example 234],,,405,,27.08
COC(=O)Cc1ccc(-c2ccc3c(n2)Oc2ccccc2[C@@H]3C(C)(C)C(=O)Nc2nncs2)cc1 [Example 238],62.3,601,,,
CC(C)C(O)c1ccc(-c2ccc3c(n2)Oc2ccccc2[C@@H]3C(C)(C)C(=O)Nc2nncs2)cc1 (stereo partly shown) [Example 240],61.7,51.9,,,
C[S+]([O-])c1ccc(-c2ccc3c(n2)Oc2ccccc2[C@@H]3C(C)(C)C(=O)Nc2nncs2)cc1 (stereo partly shown) [Example 241],46.8,25.3,,,
CC(C)Oc1ccc(-c2ccc3c(n2)Oc2ccccc2[C@@H]3C(C)(C)C(=O)Nc2nccs2)cc1F [Example 246],81.8,325,,,
